From ChEMBL document CHEMBL1135982, “New strategy for antedrug application: development of metalloproteinase inhibitors as antipsoriatic drugs” (J Med Chem, 2002) come the findings set out here.

In one assay the target is Stromelysin-1 (Homo sapiens, UniProt P08254). Kind of assay: Inhibition of Matrix metalloprotease-3 (MMP-3).
For another assay, the target named is T1, Interstitial collagenase (Homo sapiens, UniProt P03956).
T1 sequence (P03956 whole entry): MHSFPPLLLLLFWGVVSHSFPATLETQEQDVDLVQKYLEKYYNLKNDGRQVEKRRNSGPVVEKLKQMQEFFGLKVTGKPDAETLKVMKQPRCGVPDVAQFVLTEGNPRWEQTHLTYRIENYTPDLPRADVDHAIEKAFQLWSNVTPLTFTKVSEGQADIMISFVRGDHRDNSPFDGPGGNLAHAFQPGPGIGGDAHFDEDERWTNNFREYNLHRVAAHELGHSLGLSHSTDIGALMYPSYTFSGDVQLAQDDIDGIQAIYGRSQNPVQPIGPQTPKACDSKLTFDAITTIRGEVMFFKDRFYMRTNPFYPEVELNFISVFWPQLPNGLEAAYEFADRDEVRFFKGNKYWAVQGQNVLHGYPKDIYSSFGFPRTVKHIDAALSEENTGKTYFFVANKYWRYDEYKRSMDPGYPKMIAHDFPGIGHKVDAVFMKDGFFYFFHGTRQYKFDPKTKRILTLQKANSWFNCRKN
The assay can be described thus: Inhibition of Matrix metalloprotease-1 (MMP-1).

In the next assay the target is T2, Amphiregulin (Homo sapiens, UniProt P15514).
T2 sequence (P15514 whole entry): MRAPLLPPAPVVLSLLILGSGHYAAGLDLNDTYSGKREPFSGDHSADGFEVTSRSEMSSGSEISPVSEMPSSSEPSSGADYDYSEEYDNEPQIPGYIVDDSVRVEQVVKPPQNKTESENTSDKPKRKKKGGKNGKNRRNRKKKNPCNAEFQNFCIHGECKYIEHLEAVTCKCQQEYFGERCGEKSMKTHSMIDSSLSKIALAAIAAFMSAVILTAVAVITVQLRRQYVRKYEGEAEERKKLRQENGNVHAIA
Kind of assay: In vitro amphiregulin shedding inhibition. In kind it is functional.

Assay [1] concerns the target Disintegrin and metalloproteinase domain-containing protein 17 (Homo sapiens, UniProt P78536). The assay can be described thus: Inhibition of heparin-binding epidermal growth factor (HB-EGF) shedding. In kind it is functional.
Assay [2] addresses Matrix metalloproteinase-9 (Homo sapiens, UniProt P14780). Kind of assay: Inhibition of Matrix metalloprotease-9 (MMP-9).
The species named for the next assay is Homo sapiens. The assay can be described thus: Stability in human plasma and percentage of compound remained after 60 minutes was reported. In kind it is functional, cell-free.
For assay [3], the species on record is Mus musculus. The assay can be described thus: Activity against TPA-induced epidermal hyperplasia in mice, and epidermal thickness value was reported. In kind it is functional. Also on record: unit not given here.
Assay [4] is filed under the species Mus musculus. The assay can be described thus: Activity against TPA-induced epidermal hyperplasia in mice, and percent decrease in TPA-induced hyperplasia was reported. In kind it is functional.

Molecules are shown by their SMILES. Bounds are passed on as bounds.

Chain of Disintegrin and metalloproteinase domain-containing protein 17 (P78536 whole entry, the tested form may be a part): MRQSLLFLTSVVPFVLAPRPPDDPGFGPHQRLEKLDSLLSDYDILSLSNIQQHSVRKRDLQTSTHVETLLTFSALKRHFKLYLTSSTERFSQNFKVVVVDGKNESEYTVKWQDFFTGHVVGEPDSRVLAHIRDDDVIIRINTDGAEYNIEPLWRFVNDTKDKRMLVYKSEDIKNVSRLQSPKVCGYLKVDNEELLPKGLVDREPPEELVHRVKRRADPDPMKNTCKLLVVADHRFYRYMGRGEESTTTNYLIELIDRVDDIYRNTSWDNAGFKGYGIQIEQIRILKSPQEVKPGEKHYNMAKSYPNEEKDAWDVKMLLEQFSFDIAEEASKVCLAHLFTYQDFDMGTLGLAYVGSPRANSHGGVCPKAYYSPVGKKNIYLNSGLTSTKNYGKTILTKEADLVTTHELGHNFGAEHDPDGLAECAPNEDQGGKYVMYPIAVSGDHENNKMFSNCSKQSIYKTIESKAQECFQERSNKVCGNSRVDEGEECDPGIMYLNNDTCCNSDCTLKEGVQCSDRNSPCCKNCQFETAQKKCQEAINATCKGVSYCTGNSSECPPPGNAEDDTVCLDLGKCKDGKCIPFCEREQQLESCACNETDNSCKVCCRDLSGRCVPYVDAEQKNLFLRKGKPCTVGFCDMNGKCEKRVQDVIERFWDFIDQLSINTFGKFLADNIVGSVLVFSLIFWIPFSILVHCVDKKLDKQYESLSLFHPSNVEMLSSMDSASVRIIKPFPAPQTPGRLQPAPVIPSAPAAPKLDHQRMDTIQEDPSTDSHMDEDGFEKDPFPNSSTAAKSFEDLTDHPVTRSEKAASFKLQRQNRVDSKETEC
Chain of Stromelysin-1 (P08254 whole entry): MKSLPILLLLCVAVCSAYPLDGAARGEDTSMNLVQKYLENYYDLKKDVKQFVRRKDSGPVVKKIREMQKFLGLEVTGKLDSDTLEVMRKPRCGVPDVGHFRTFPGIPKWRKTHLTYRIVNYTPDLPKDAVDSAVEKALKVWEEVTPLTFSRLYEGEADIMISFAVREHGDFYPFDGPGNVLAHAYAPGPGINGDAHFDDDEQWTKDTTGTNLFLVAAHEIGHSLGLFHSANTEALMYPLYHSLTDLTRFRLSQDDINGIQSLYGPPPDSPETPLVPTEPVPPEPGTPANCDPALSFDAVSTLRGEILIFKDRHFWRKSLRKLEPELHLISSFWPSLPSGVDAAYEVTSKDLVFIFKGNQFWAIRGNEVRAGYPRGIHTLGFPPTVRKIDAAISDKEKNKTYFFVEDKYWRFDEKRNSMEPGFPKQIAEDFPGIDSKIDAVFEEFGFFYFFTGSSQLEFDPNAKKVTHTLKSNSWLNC
Chain of Matrix metalloproteinase-9 (P14780 whole entry): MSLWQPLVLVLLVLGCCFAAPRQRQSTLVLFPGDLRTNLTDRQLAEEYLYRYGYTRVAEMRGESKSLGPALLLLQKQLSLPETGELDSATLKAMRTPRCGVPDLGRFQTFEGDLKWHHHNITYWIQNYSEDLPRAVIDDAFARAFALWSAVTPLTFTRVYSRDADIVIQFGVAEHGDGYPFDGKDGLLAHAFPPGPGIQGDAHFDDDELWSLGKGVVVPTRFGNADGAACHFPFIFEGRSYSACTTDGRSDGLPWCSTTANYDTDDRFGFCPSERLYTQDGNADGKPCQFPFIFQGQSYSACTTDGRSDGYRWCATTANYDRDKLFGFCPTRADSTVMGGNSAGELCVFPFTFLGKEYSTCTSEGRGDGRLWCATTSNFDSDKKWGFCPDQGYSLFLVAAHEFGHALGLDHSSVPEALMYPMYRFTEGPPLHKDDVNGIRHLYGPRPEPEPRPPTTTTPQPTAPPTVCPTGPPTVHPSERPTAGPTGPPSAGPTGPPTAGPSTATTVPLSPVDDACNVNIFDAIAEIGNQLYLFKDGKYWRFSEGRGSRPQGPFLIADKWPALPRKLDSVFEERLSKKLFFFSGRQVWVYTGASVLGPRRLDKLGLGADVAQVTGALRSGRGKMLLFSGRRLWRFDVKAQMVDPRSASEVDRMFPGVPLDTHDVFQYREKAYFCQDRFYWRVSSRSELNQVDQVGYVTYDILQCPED

Take `COc1ccc([P@](=O)(OCC(F)(F)F)N2Cc3ccccc3C[C@@H]2C(=O)NO)cc1`: the Ki at Stromelysin-1 worked out at 6.75 nM; on Interstitial collagenase it was 6.57 nM; in assay [2], 3.68 nM. Further, the IC50 was determined as 950 nM against Amphiregulin and 730 nM in assay [1].
As to `O=C(NO)C1Cc2ccccc2CN1` (stereo unspecified), the inhibition constant (Ki) is above 650 nM on Stromelysin-1 and above 800 nM in assay [2]. The compound also came in with an IC50 in assay [1] above 10000 nM.
Regarding `COc1ccc([P@](=O)(OCCC(F)(F)F)N2Cc3ccccc3C[C@@H]2C(=O)NO)cc1`, in the assay listed under Homo sapiens, the Stability was determined as 99%. Further, the Ki at Stromelysin-1 is 3.33 nM; at Interstitial collagenase, 2.21 nM; in assay [2], 4.46 nM. Further, the IC50 was determined as 970 nM against Amphiregulin and 310 nM in assay [1].
The compound `CCCCCCCCCCCCCC(=O)O[C@@H]1[C@@H](C)[C@]2(O)C3C=C(C)C(=O)[C@@]3(O)CC(CO)=C[C@H]2[C@@H]2C(C)(C)[C@]12OC(C)=O.CCO[P@@](=O)(c1ccc(OC)cc1)N1Cc2ccccc2C[C@@H]1C(=O)NO` (stereo partly specified) gave an Epidermal thickness in the assay listed under Mus musculus [3] below 44.4. In addition, the Decrease in the assay filed under Mus musculus [4] came to 45.6%.
Turning to `CCO[P@](=O)(c1ccc(OC)cc1)N1Cc2ccccc2C[C@@H]1C(=O)NO`, the IC50 in assay [1] was above 10000 nM. The same compound returned a Ki in assay [2] above 800 nM.
In turn, `COc1ccc(P(=O)(OC)N2Cc3ccccc3CC2C(=O)NO)cc1` (stereo unspecified) displayed an IC50 in assay [1] below 1000 nM.
On to `COc1ccc([P@](=O)(OCC(F)F)N2Cc3ccccc3C[C@@H]2C(=O)NO)cc1`, for which the Ki on Stromelysin-1 was found to be 6.67 nM; at Interstitial collagenase, 6 nM; in assay [2], 4.97 nM. In addition, the IC50 against Amphiregulin is 1470 nM; in assay [1], 510 nM.
In turn, `CCO[P@@](=O)(c1ccc(OC)cc1)N1Cc2ccccc2C[C@@H]1C(=O)NO` registered a Stability in the assay listed under Homo sapiens of 100%. For the same compound, the Ki on Stromelysin-1 was found to be 5.2 nM; on Interstitial collagenase, 4.59 nM; in assay [2], 5.05 nM. Besides, the IC50 was 350 nM at Amphiregulin and 230 nM in assay [1].
`CCCCCCCCCCCCCC(=O)O[C@@H]1[C@@H](C)[C@@]2(O)[C@@H](C=C(CO)C[C@]3(O)C(=O)C(C)=C[C@@H]23)[C@@H]2C(C)(C)[C@]12OC(C)=O` [PHORBOL MYRISTATE ACETATE] came in with an Epidermal thickness in the assay filed under Mus musculus [3] of 62.2.
With `CCCCCCCCCCCCCC(=O)O[C@@H]1[C@@H](C)[C@]2(O)C3C=C(C)C(=O)[C@@]3(O)CC(CO)=C[C@H]2[C@@H]2C(C)(C)[C@]12OC(C)=O.COc1ccc([P@](=O)(OCC(F)F)N2Cc3ccccc3C[C@@H]2C(=O)NO)cc1` (stereo partly specified), in the assay listed under Mus musculus [3], the Epidermal thickness is below 39.7. This compound also gave a Decrease in the assay filed under Mus musculus [4] of 57.7%.
Compound `CCCCCCCCCCCCCC(=O)O[C@@H]1[C@@H](C)[C@]2(O)C3C=C(C)C(=O)[C@@]3(O)CC(CO)=C[C@H]2[C@@H]2C(C)(C)[C@]12OC(C)=O.COc1ccc([P@](=O)(OCC(F)(F)F)N2Cc3ccccc3C[C@@H]2C(=O)NO)cc1` (stereo partly specified) came in with an Epidermal thickness in the assay listed under Mus musculus [3] below 30.5. Also, the Decrease in the assay filed under Mus musculus [4] is given as 81.3%.
In the assay filed under Homo sapiens, `COc1ccc([P@](=O)(OCCF)N2Cc3ccccc3C[C@@H]2C(=O)NO)cc1` showed a Stability of 96%. Further, the Ki on Stromelysin-1 was 9.07 nM; on Interstitial collagenase, 10.5 nM; in assay [2] it was 10.5 nM. The values for the IC50 (at Amphiregulin; in assay [1]) were 470 nM and 180 nM, respectively.
